Test results reported in publication PMC7400577 (Scientific Reports, 2020).
pEC50, pIC50: −log10 of the molar value. Like-named read-outs stand apart in the source and are kept apart here.

Assays:
Type in all cases: cell-based
hBGT1 [1] = biological target: T1, hBGT1 (Homo sapiens, UniProt P48065); details: for pIC50 / IC50: 30 nM [3H]GABA, 3 min, CHO Flp-In cells stably expressing hBGT1; for pIC50: read-out: IC50 hBGT1; for IC50: read-out: pIC50 ± S.E.M. hBGT1 (converted); for subtype-selectivity for hBGT1 over the other hGATs: estimated from [3H]GABA uptake IC50 values
T1 construct: expressed in transfected cells
T1 sequence (P48065 1-614): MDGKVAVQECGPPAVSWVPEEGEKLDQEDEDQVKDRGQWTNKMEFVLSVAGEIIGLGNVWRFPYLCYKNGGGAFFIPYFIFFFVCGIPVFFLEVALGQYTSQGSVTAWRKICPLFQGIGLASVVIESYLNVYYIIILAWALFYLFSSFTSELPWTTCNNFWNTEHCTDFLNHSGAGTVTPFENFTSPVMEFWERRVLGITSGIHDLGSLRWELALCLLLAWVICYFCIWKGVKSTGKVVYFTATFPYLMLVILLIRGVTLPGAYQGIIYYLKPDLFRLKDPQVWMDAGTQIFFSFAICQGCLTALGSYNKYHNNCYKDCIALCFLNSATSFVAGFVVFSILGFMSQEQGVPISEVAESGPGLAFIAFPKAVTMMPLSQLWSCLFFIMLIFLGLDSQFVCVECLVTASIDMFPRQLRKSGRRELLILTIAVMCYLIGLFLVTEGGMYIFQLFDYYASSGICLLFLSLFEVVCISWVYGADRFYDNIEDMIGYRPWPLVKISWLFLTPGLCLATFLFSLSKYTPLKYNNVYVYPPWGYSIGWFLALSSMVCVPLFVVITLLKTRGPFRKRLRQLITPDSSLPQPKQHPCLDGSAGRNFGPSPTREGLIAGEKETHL
Method: (§1) CHO Flp-In and tsA201 cells were cultured at 37 °C in a humidified atmosphere of […] and 5% CO2. As previously described[38],[63], CHO Flp-In cells stably expressing the hGATs were cultured in Ham’s F12 Nutrient Mix supplemented with 10% FBS, 1% P/S and plasmocin (5 µg/mL) under the selection pressure of hygromycin B (200 µg/mL). DMEM with GlutaMAX-I supplemented with 10% FBS and 1% P/S was used as growth medium for the tsA201 cells, which were transfected with DNA constructs using PolyFect according to the manufacturer’s specifications (Qiagen, West Sussex, UK), but with half of the recommended reagent volumes.
(§2) Uptake assays were performed in PDL-coated white 96-well polystyrene cell culture microplates (PerkinElmer, Boston, MA, USA) as previously described[38],[63]. […] Assay buffer was HBSS supplemented with 20 mM HEPES, 1 mM CaCl2 and 1 mM MgCl2, pH 7.4. […] After termination, scintillation liquid (MicroScint-20, PerkinElmer) was added and the radioactivity measured in a TopCount NXT Microplate Scintillation Counter (PerkinElmer).
(§3) Data analysis and statistical evaluation were performed in GraphPad Prism 7.02 (GraphPad Software, San Diego, CA, USA). Concentration-uptake inhibition curves, generated from the radioligand-based uptake assays, were fitted by non-linear regression, using the equation for sigmoidal concentration–response with variable slope: Y = Bottom + (Top–Bottom)/(1 + 10^((logIC50 − X) × HillSlope)), where Y is the response, X is the logarithm of the concentration, Top and Bottom are the plateaus in same units as Y, logIC50 is the concentration giving a response halfway between Bottom and Top, and the HillSlope is the steepness of the curve. For the substrate concentration–response curves generated from the FMP assay, the same equation was used but with logEC50 instead for logIC50. Unless otherwise stated, data are presented as means ± S.E.M. of at least three independent pooled experiments performed in triplicates.

hGAT1 = biological target: T2, hGAT1 (Homo sapiens, UniProt P30531); experiment: [3H]GABA uptake inhibition at hGAT1 stably expressed in CHO Flp-In cells; details: 30 nM [3H]GABA, 3 min, CHO Flp-In cells stably expressing hGAT1; for pIC50: read-out: IC50 hGAT1
T2 construct: expressed in transfected cells
Method: as §1, §2, §3

hGAT2 = biological target: T3, hGAT2 (Homo sapiens, UniProt Q9NSD5); experiment: [3H]GABA uptake inhibition at hGAT2 stably expressed in CHO Flp-In cells; details: 30 nM [3H]GABA, 3 min, CHO Flp-In cells stably expressing hGAT2; for pIC50: read-out: IC50 hGAT2; for IC50: read-out: pIC50 ± S.E.M. hGAT2 (converted)
T3 construct: expressed in transfected cells
T3 sequence (Q9NSD5 1-602): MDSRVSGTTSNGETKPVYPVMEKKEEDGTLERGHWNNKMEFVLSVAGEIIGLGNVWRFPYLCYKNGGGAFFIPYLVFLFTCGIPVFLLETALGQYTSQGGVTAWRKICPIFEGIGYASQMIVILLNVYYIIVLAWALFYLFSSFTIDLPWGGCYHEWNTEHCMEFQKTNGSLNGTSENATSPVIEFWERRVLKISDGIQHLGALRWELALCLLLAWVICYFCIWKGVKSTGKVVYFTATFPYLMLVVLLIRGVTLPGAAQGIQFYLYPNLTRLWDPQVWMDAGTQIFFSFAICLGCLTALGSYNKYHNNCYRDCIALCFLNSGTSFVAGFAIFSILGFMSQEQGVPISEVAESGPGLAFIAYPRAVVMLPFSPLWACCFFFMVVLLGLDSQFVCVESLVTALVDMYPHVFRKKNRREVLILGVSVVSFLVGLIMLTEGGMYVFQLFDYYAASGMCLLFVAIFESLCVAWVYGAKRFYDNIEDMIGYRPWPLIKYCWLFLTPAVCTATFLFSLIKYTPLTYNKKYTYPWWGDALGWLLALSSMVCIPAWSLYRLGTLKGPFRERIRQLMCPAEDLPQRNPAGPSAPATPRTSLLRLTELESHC
Method: as §1, §2, §3

hGAT3 = biological target: T4, hGAT3 (Homo sapiens, UniProt P48066); experiment: [3H]GABA uptake inhibition at hGAT3 stably expressed in CHO Flp-In cells; details: 30 nM [3H]GABA, 3 min, CHO Flp-In cells stably expressing hGAT3; for pIC50: read-out: IC50 hGAT3
T4 construct: expressed in transfected cells
T4 sequence (P48066 1-632): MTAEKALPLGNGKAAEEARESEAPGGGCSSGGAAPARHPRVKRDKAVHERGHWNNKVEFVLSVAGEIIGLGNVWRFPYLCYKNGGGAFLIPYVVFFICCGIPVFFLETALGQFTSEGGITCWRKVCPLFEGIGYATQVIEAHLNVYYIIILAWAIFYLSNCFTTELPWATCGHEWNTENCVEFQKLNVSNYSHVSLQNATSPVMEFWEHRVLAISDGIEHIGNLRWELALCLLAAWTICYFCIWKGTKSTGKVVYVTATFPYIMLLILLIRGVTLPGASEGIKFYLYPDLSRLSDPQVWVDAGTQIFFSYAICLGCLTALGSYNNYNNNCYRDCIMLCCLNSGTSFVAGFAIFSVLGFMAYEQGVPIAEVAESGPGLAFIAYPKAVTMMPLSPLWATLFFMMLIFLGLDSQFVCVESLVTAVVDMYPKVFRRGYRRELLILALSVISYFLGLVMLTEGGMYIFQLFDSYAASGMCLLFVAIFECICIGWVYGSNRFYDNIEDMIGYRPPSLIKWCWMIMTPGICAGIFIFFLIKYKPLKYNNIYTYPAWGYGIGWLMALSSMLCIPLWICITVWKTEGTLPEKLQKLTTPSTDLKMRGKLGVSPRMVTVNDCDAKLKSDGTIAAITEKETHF
Method: as §1, §2, §3

hBGT1 [2] = biological target: T1, hBGT1; experiment: FLIPR Membrane Potential (FMP) assay at hBGT1 stably expressed in CHO Flp-In cells
Method: The fluorescence-based FMP assay was performed as previously described, for the functional characterization of the electrogenic transport of substrates via hBGT1. Briefly, CHO Flp-In cells stably expressing hBGT1 or hGAT1 were plated (~ 50,000 cells/well) into black PDL-coated 96-well plates with clear bottom (VWR, Radnor, PA, USA). The next day, the growth medium was removed, and cells were washed once with HBSS assay buffer and FMP Blue Dye (Molecular Devices, Crawley, UK), added, and incubated. Ligands were added via the NOVOStar plate reader (BMG Labtech GmbH, Offenburg, Germany), preheated to 37 °C, approximately 10 min before reading of the cell plate. The fluorescence signals were measured for 33.8 s upon ligand addition using an emission and excitation wavelength of […], respectively. Electrogenic transport of substrates via hBGT1 will lead to an influx of the negatively charged FMP Blue dye that will bind to intracellular proteins and lipids resulting in an increase in the fluorescence signal.
as §3

hBGT1 wt = biological target: T5, hBGT1 wt (Homo sapiens, UniProt P48065); experiment: [3H]GABA uptake inhibition at wt hBGT1 transiently expressed in tsA201 cells; details: 30 nM [3H]GABA, tsA201 cells transiently expressing wt hBGT1; for pIC50: read-out: IC50 BGT1 wt
T5 construct: expressed in transfected cells; host or cells: tsA201 cells, transient (PolyFect), pcDNA5/FRT vector
T5 sequence (P48065 1-614): T1 sequence (P48065 1-614)

T2 sequence (P30531 whole entry): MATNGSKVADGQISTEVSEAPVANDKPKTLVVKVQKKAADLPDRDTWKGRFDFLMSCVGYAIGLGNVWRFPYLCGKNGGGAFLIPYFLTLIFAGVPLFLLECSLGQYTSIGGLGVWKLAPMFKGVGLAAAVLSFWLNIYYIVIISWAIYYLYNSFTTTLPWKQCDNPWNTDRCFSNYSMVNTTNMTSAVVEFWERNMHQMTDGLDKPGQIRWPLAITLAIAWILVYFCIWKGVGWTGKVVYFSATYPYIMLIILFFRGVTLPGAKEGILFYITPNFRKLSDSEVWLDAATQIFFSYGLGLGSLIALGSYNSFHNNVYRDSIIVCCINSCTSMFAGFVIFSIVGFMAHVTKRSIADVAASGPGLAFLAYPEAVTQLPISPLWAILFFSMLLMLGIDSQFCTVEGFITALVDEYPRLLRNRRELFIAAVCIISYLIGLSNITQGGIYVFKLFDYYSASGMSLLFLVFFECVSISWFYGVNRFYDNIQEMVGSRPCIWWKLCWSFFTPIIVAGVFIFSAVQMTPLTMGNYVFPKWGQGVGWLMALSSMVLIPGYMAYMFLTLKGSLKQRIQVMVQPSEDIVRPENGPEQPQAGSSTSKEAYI

| SMILES | pIC50 (hBGT1 [1]) | pIC50 (hGAT1) | pIC50 (hGAT2) | pIC50 (hGAT3) | further results |
| --- | --- | --- | --- | --- | --- |
| C[C@@H]1N=C(N)NC[C@@H]1C(=O)O (single isomer, unassigned) [l-15b] | 3.35 | < 3.00 | < 3.00 | < 3.00 | IC50 (hBGT1 [1]): 417 µM; subtype-selectivity for hBGT1 over the other hGATs (hBGT1 [1]; CHO Flp-In cells): 2–3 times |
| Cc1ccsc1C(=CCCN1CC(C(=O)O)CN=C1N)c1sccc1C (stereo not shown) [compound 8] | – | – | – | – | pIC50 (hBGT1 wt): 3.21; IC50 (hBGT1 wt; read-out: pIC50 ± S.E.M. BGT1 wt (converted)): 631 µM |
| C[C@@H]1N=C(N)NC[C@@H]1C(=O)O (relative stereo) [l-15] | – | – | – | – | IC50 (hBGT1 [1]): 41.7 µM |
| CC(C)C1=C(C(=O)O)CNC(N)=N1 [compound 14] | < 3.00 | < 3.00 | 3.00 | < 3.00 | IC50 (hGAT2): 955 µM |
| NC1=NCC(C(=O)O)=CN1Cc1ccccc1 [compound 9] | – | – | – | – | pIC50 (hBGT1 wt): < 3.00 |
| CC(C)C1N=C(N)NCC1C(=O)O (stereo not shown) [compound 17] | < 3.00 | < 3.00 | < 3.00 | < 3.00 | – |
| NC1=NC(CCc2ccccc2)C(C(=O)O)CN1 (stereo not drawn) [l-18] | < 3.00 | < 3.00 | < 3.00 | < 3.00 | – |
| NC1=N[C@@H](CCc2ccc(-c3ccccc3)cc2)[C@@H](C(=O)O)CN1 (relative stereo) [l-19] | < 3.00 | < 3.00 | < 3.00 | < 3.00 | – |
| O=C(O)C1CN=C(NCCc2ccccc2)NC1 (stereo not shown) [compound 10] | < 3.00 | 3.36 | < 3.00 | < 3.00 | IC50 (hGAT1; read-out: pIC50 ± S.E.M. hGAT1 (converted)): 427 µM |
| NC1=NCC(C(=O)O)CN1CCCC(c1ccccc1)c1ccccc1 (stereo not shown) [compound 7] | < 3.00 | < 3.00 | < 3.00 | < 3.00 | – |

Further lines, with some results ahead:

| pIC50 (hBGT1 [1]) | pIC50 (hGAT1) | pIC50 (hGAT2) | pIC50 (hGAT3) | SMILES | further results |
| --- | --- | --- | --- | --- | --- |
| < 3.00 | < 3.00 | < 3.00 | < 3.00 | NC1=NCC(C(=O)O)CN1CCC(c1ccccc1)c1ccccc1 (stereo not shown) [compound 6] | – |
| < 3.00 | < 3.00 | < 3.00 | < 3.00 | CC1=C(C(=O)O)CNC(N)=N1 [compound 12] | – |
| < 3.00 | < 3.00 | 3.22 | < 3.00 | CCCC1N=C(N)NCC1C(=O)O (stereo not shown) [compound 16] | IC50 (hGAT2): 589 µM |
| 4.30 | 2.98 | 3.42 | 3.40 | NC1=NCC(C(=O)O)CN1Cc1ccc(-c2ccccc2)cc1 (stereo not shown) [compound 5] | decrease of hBGT1 inhibitory potency compared to ATPCA (hBGT1 [1]; [3H]GABA uptake, CHO Flp-In cells): 20–65 fold; subtype-selectivity for hBGT1 over the other hGATs (hBGT1 [1]; CHO Flp-In cells): at least 7 times; IC50 (hGAT3; read-out: pIC50 ± S.E.M. hGAT3 (converted)): 380 µM; substrate character at hBGT1 in FMP assay (hBGT1 [2]; concentration-dependent increase in fluorescence signal): substrates for hBGT1; Mean Rmax as % of GABA Rmax ± S.E.M. (hBGT1 [2]; hBGT1 stably expressed in CHO Flp-In cells, FMP assay): 73 ± 2.8 % of GABA Rmax; pEC50 (hBGT1 [2]; hBGT1 stably expressed in CHO Flp-In cells, three independent experiments): 3.71 |
| < 3.00 | < 3.00 | 3.28 | < 3.00 | CCCC1=C(C(=O)O)CNC(N)=N1 [compound 13] | IC50 (hGAT2): 501 µM |
| 4.07 | < 3.00 | < 3.00 | < 3.00 | C[C@H]1N=C(N)NC[C@@H]1C(=O)O (single isomer, unassigned) [u-15b] | IC50 (hBGT1 [1]): 77.6 µM; subtype-selectivity for hBGT1 over the other hGATs (hBGT1 [1]; CHO Flp-In cells): at least 12 times |
| 3.53 | < 3.00 | < 3.00 | < 3.00 | C[C@H]1N=C(N)NC[C@@H]1C(=O)O (single isomer, unassigned) [u-15a] | IC50 (hBGT1 [1]): 269 µM; subtype-selectivity for hBGT1 over the other hGATs (hBGT1 [1]; CHO Flp-In cells): 2–3 times |
